The target in this assay is T1, human BRD4 bromodomain II (Homo sapiens, UniProt O60885).
T1 construct: human BRD4 bromodomain II [based on Genbank NM_058243, residues 349-460]; host or cells: E. coli
Description: Bromodomain binding assay (AlphaScreen), BRD4 BDII. The conditions noted are these: AlphaScreen assay, Table C2; read-out: BRD4 BDII IC50. The method, then: Bromodomain Binding Assay
The bromodomain binding assay utilizes AlphaScreen technology. Compounds compete with a biotinylated peptide ligand (from histone H4: aa 1-21, K5/K8/K12/K16Ac-biotin) for binding to a hexahistidine (His6)-tagged bromodomain. Peptide binding is detected by fluorescence signal after singlet oxygen energy transfer from peptide-bound AlphaScreen streptavidin-coated donor beads to His6-tagged bromodomain-bound nickel-chelate acceptor beads (PerkinElmer). Briefly, 8 μL 2.5× bromodomain (E. coli expressed, N-terminal His6-tagged human BRD4 bromodomain II [based on Genbank NM_058243, residues 349-460] or N-terminal His6-tagged human BRD4 bromodomain I [residues 44-170]) in reaction buffer (50 mM HEPES [pH 7.5], 100 mM NaCl, 0.05% CHAPS, 0.1% BSA, 1% DMSO) is added to wells of an assay plate (384-well low flange white, flat bottom, polystyrene microplate, Corning #3572; buffer only is added to some wells as a negative control). A compound concentration series (10 concentrations, 3-fold serial dilutions previously prepared in 100% DMSO, or 100% DMSO only negative control) is delivered to the assay plate with an Echo 550 acoustic liquid handler (Labcyte), followed by plate centrifugation and incubation for 30 minutes at room temperature. Then 4 μL 5× biotinylated peptide ligand is added, followed by plate centrifugation and gentle shaking for 30 minutes at room temperature to mix. After this incubation, 4 μL 5× donor beads are added, and the plate is centrifuged, followed by brief gentle shaking to mix. Finally, 4 μL 5× acceptor beads are added, and the plate is centrifuged, followed by gentle shaking for 60 minutes at room temperature in the dark. AlphaScreen signal (excitation/emission: 680 nm/520-620 nm) is detected with an EnSpire multimode plate reader (PerkinElmer). Percentage peptide binding is plotted as a function of concentration, and curve fitting is used to determine competitive compound binding ICsos.
For orientation: Bead proximity is the source of the signal in Alpha formats.

Where a name gives a salt, the structure may show the parent alone.

Consider `CC(=O)Nc1ccc(-c2cccc(-c3cnc(N4CCNCC4)o3)c2O)cc1F` [Example 112, N-(3-Fluoro-2′-hydroxy-3′-(2-(piperazin-1-yl)oxazol-5-yl)-[1,1′-biphenyl]-4-yl)acetamide], for which the 50% inhibitory concentration (IC50) (commonly the concentration that gives 50% inhibition) lay in the range of 0.01 to 0.1 µM.
Take `CC(=O)Nc1ccc(-c2cccc(-c3ccnc(C(=O)O)c3)c2O)cc1F` [Example 205, 4-(4′-acetamido-3′-fluoro-2-hydroxy-[1,1′-biphenyl]-3-yl)picolinic acid]: the IC50 was 0.001 to 0.01 µM.
For the molecule `CC(=O)Nc1ccc(-c2cccc(-c3cccc(N4CC(CN)C4)c3)c2O)cc1F` [Example 220, N-(3″-(3-(aminomethyl)azetidin-1-yl)-3-fluoro-2′-hydroxy-[1,1′:3′,1″-terphenyl]-4-yl)acetamide], the half-inhibitory concentration (IC50) fell in the range of 0.01 to 0.1 µM.
Turning to `O=C1CCCN1c1ccc(-c2cccc(-c3cc(N4CCNCC4)no3)c2O)cc1` [Example 43, 1-(2′-Hydroxy-3′-(3-(piperazin-1-yl)isoxazol-5-yl)-[1,1′-biphenyl]-4-yl)pyrrolidin-2-one 2,2,2-trifluoroacetate], the IC50 was 0.01 to 0.1 µM.
As to `CC(=O)Nc1ccc(-c2cccc(-c3ccc(NC(C)=O)c(F)c3)c2O)cc1` [Example 99, N,N′-(3-Fluoro-2′-hydroxy-[1,1′:3′,1″-terphenyl]-4,4″-diyl)diacetamide], the IC50 fell in the range of 0.01 to 0.1 µM.
For `O=C1CCCN1c1ccc(-c2cccc(-c3cc(N4CCNCC4)no3)c2O)cc1F` [Example 113, 1-(3-Fluoro-2′-hydroxy-3′-(3-(piperazin-1-yl)isoxazol-5-yl)-[1,1′-biphenyl]-4-yl)pyrrolidin-2-one], the half-inhibitory concentration (IC50) is 0.01 to 0.1 µM.
Regarding `CC(=O)Nc1c(F)cc(-c2cccc(-c3cc(N4CCNCC4)no3)c2O)cc1F` [Example 86, N-(3,5-Difluoro-2′-hydroxy-3′-(3-(piperazin-1-yl)isoxazol-5-yl)-[1,1′-biphenyl]-4-yl)acetamide 2,2,2-trifluoroacetate], the concentration for half-maximal inhibition (IC50) fell in the range of 0.01 to 0.1 µM.
Take `CC(=O)Nc1ccc(-c2cccc(-c3cccc(N4CCC(N)CC4)c3)c2O)cc1F` [Example 159, N-(3″-(4-aminopiperidin-1-yl)-3-fluoro-2′-hydroxy-[1,1′:3′,1″-terphenyl]-4-yl)acetamide 2,2,2-trifluoroacetate]: the IC50 lay in the range of 0.01 to 0.1 µM.
Next, `CC(=O)Nc1ccc(-c2cccc(-c3cc(N4CCNCC4)no3)c2O)cc1F` [Example 34, N-(3-Fluoro-2′-hydroxy-3′-(3-(piperazin-1-yl)isoxazol-5-yl)-[1,1′-biphenyl]-4-yl)acetamide trifluoroacetate]: 0.01 to 0.1 µM.
With `CC(=O)Nc1ccc(-c2cccc(-c3cc(N4CCN(C(C)=O)CC4)no3)c2O)cc1` [Example 57, N-(3′-(3-(4-Acetylpiperazin-1-yl)isoxazol-5-yl)-2′-hydroxy-[1,1′-biphenyl]-4-yl)acetamide], the IC50 was > 0.1 µM.
Next, `CC(=O)Nc1ccc(-c2cccc(-c3cc(N4CCNCC4)no3)c2O)c(F)c1` [Example 30, N-(2-Fluoro-2′-hydroxy-3′-(3-(piperazin-1-yl)isoxazol-5-yl)-[1,1′-biphenyl]-4-yl)acetamide 2,2,2-trifluoroacetate]: > 0.1 µM; `CC(=O)Nc1ccc(-c2cccc(-c3cccc(N4CC(C)NC(C)C4)c3)c2O)cc1F` (centres unmarked) [Example 200, N-(3″-(3,5-dimethylpiperazin-1-yl)-3-fluoro-2′-hydroxy-[1,1′:3′,1″-terphenyl]-4-yl)acetamide]: 0.001 to 0.01 µM; `CC(=O)Nc1ccc(-c2cccc(-c3ccc(NC(C)=O)c(Oc4ccccc4)c3)c2O)cc1F` [Example 53, N,N′-(3-Fluoro-2′-hydroxy-3″-phenoxy-[1,1′:3′,1″-terphenyl]-4,4″-diyl)diacetamide]: > 0.1 µM.
In the case of `O=C1NCCN1c1ccc(-c2cccc(-c3cccc(N4CCNCC4)c3)c2O)cc1F` [Example 197, 1-(3-fluoro-2′-hydroxy-3″-(piperazin-1-yl)-[1,1′:3′,1″-terphenyl]-4-yl)imidazolidin-2-one], the IC50 was in the range of 0.001 to 0.01 µM.
As for `O=C1CCCN1c1c(Cl)cc(-c2cccc(-c3cc(N4CCNCC4)no3)c2O)cc1Cl` [Example 172, 1-(3,5-dichloro-2′-hydroxy-3′-(3-(piperazin-1-yl)isoxazol-5-yl)-[1,1′-biphenyl]-4-yl)pyrrolidin-2-one], the IC50 is > 0.1 µM.
Regarding `COc1ccc(-c2cccc(-c3ccc(NC(C)=O)c(F)c3)c2O)cn1` [Example 98, N-(3-Fluoro-2′-hydroxy-3′-(6-methoxypyridin-3-yl)-[1,1′-biphenyl]-4-yl)acetamide], the IC50 is 0.01 to 0.1 µM.
`O=C1NCCN1c1ccc(-c2cccc(-c3cc(N4CCNCC4)no3)c2O)cc1` [Example 41, 1-(2′-Hydroxy-3′-(3-(piperazin-1-yl)isoxazol-5-yl)-[1,1′-biphenyl]-4-yl)imidazolidin-2-one 2,2,2-trifluoroacetate]: the concentration for half-maximal inhibition (IC50) was in the range of 0.01 to 0.1 µM.
Next, `CC(=O)Nc1ccc(-c2cccc(-c3cc(N4CCNCC4)ccc3F)c2O)cc1F` [Example 187, N-(2″,3-difluoro-2′-hydroxy-5″-(piperazin-1-yl)-[1,1′:3′,1″-terphenyl]-4-yl)acetamide]: 0.01 to 0.1 µM; `CC(=O)Nc1ccc(-c2cccc(-c3cccc(N4C[C@H]5CC[C@@H](C4)N5)c3)c2O)cc1F` [Example 176, N-(3″-((1R,5S)-3,8-diazabicyclo[3.2.1]octan-3-yl)-3-fluoro-2′-hydroxy-[1,1′:3′,1″-terphenyl]-4-yl)acetamide]: 0.01 to 0.1 µM.
For the molecule `CC(=O)Nc1ccc(-c2cccc(-c3cc(C)c(NC(C)=O)c(F)c3)c2O)cc1F` [Example 139, N,N′-(3,3″-difluoro-2′-hydroxy-5-methyl-[1,1′:3′,1″-terphenyl]-4,4″-diyl)diacetamide], the half-inhibitory concentration (IC50) was > 0.1 µM.
Regarding `COC(=O)Nc1ccc(-c2cccc(-c3cc(N4CCNCC4)no3)c2O)cc1` [Example 141, Methyl (2′-hydroxy-3′-(3-(piperazin-1-yl)isoxazol-5-yl)-[1,1′-biphenyl]-4-yl)carbamate 2,2,2-trifluoroacetate], the IC50 is > 0.1 µM.
For `CC(=O)Nc1ccc(-c2cccc(-c3ccc(NC(C)=O)c(OC4CCCC4)c3)c2O)cc1F` [Example 73, N,N′-(3-(Cyclopentyloxy)-3″-fluoro-2′-hydroxy-[1,1′:3′,1″-terphenyl]-4,4″-diyl)diacetamide], the half-maximal inhibitory concentration (IC50) was > 0.1 µM.
As for `CC(=O)Nc1ccc(-c2cccc(-c3cc4ccccc4[nH]3)c2O)cc1F` [Example 156, N-(3-fluoro-2′-hydroxy-3′-(1H-indol-2-yl)-[1,1′-biphenyl]-4-yl)acetamide], the half-maximal inhibitory concentration (IC50) is > 0.1 µM.
With `CC(=O)Nc1ccc(-c2cccc(-c3ccc(N4CCNCC4)cc3)c2O)cc1F` [Example 108, N-(3-Fluoro-2′-hydroxy-4″-(piperazin-1-yl)-[1,1′:3′,1″-terphenyl]-4-yl)acetamide], the IC50 is > 0.1 µM.
With `CCOc1cccc(-c2cccc(-c3ccc(NC(C)=O)c(F)c3)c2O)c1` [Example 72, N-(3″-Ethoxy-3-fluoro-2′-hydroxy-[1,1′:3′,1″-terphenyl]-4-yl)acetamide], the 50% inhibitory concentration (IC50) was > 0.1 µM.
Take `CC(=O)Nc1ccc(-c2cccc(-c3cc(N4CCN(C(C)C)CC4)no3)c2O)cc1F` [Example 152, N-(3-fluoro-2′-hydroxy-3′-(3-(4-isopropylpiperazin-1-yl)isoxazol-5-yl)-[1,1′-biphenyl]-4-yl)acetamide 2,2,2-trifluoroacetate]: the IC50 lay within 0.01 to 0.1 µM.
In the case of `COc1cc(-c2cccc(-c3ccc(NC(C)=O)cc3)c2O)ccc1NC(C)=O` [Example 127, N,N′-(2′-Hydroxy-3-methoxy-[1,1′:3′,1″-terphenyl]-4,4″-diyl)diacetamide], the 50% inhibitory concentration (IC50) was in the range of 0.01 to 0.1 µM.
Turning to `CC(=O)Nc1ccc(-c2cccc(-c3cnn(C4CCN(C)CC4)c3)c2O)cc1` [Example 17, N-(2′-Hydroxy-3′-(1-(1-methylpiperidin-4-yl)-1H-pyrazol-4-yl)-[1,1′-biphenyl]-4-yl)acetamide], the half-maximal inhibitory concentration (IC50) is > 0.1 µM.
Next, `CC(=O)Nc1ccc(-c2cccc(-c3cccc(-c4cn[nH]n4)c3)c2O)cc1F` [Example 243, N-(3-fluoro-2′-hydroxy-3″-(2H-1,2,3-triazol-4-yl)-[1,1′:3′,1″-terphenyl]-4-yl)acetamide]: > 0.1 µM; `CC(=O)Nc1ccc(-c2cccc(-c3ccc(C)cc3)c2O)cc1F` [Example 60, N-(3-Fluoro-2′-hydroxy-4″-methyl-[1,1′:3′,1″-terphenyl]-4-yl)acetamide]: > 0.1 µM; `COC(=O)c1cc(-c2cccc(-c3ccc(NC(C)=O)c(F)c3)c2O)ccn1` [Example 201, Methyl 4-(4′-acetamido-3′-fluoro-2-hydroxy-[1,1′-biphenyl]-3-yl)picolinate]: 0.01 to 0.1 µM.
Consider `CC(=O)Nc1c(F)cc(-c2cccc(-c3cc(N4CCNCC4)no3)c2O)cc1OC1CCC1` [Example 100, N-(3-Cyclobutoxy-5-fluoro-2′-hydroxy-3′-(3-(piperazin-1-yl)isoxazol-5-yl)-[1,1′-biphenyl]-4-yl)acetamide], for which the half-maximal inhibitory concentration (IC50) was 0.001 to 0.01 µM.

Source of the values: patent US20250179059A1 (The Regents of the University of California, priority 2021, published 2025).
